Assay results reported in ChEMBL document CHEMBL1201862, “PubChem BioAssay data set” (2004).
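Assay format: 96-well plates, 48-hour exposure. At the GI50, growth is halved.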 Activity calls are given as the source filed them. Rule as the data show it: active = GI50 up to about 1.1 µM and inactive = higher.

What was measured:
Test in all cases: DTP human tumour cell line panel, 48 h
[1] = tested on: MCF7
[2] = tested on: Malme-3M
[3] = tested on: SK-OV-3
[4] = tested on: MDA-MB-435
[5] = tested on: CAKI-1
[6] = tested on: UACC-257
[7] = tested on: A498
[8] = tested on: SNB-78
[9] = tested on: DMS-114
[10] = tested on: NCI/ADR-RES
[11] = tested on: HOP-18
[12] = tested on: DMS-273
[13] = tested on: IGROV-1
[14] = tested on: Hs-578T
[15] = tested on: CCRF-CEM
[16] = tested on: XF498
[17] = tested on: DU-145
[18] = tested on: RPMI-8226
[19] = tested on: LOX IMVI
[20] = tested on: DLD-1

Measured: GI50

S=c1c2nc[nH]c2ncn1CCSC1=NC=NC2=NC=NC21 (stereo not given)
inactive: [1] > 100 µM | [2] > 100 µM | [3] 52.2 µM | [4] 53.5 µM | [5] > 100 µM | [6] > 81.3 µM | [7] > 100 µM | [8] 73.6 µM | [9] > 100 µM | [10] > 100 µM | [11] > 100 µM | [12] 64.4 µM | [13] > 100 µM | [14] > 100 µM | [15] > 82.2 µM | [16] > 100 µM | [17] 78.3 µM | [18] > 85.5 µM | [19] 44.7 µM | [20] > 100 µM
